{"source": "patent US20230121313A1", "about": "(priority 2019, published 2023)", "key": {"[1]": {"system": "elderly subjects with TRD", "test": "MADRS total score, Study […]3005 (change, response, remission)", "assay_type": "in vivo, human", "experimental": "The primary objective of this study was to evaluate the efficacy of switching elderly subjects with treatment-resistant depression (TRD) from a prior antidepressant treatment (to which they have not responded) to flexibly dosed intranasal esketamine (28 mg, 56 mg or 84 mg) plus a newly initiated oral antidepressant compared with switching to a newly initiated oral antidepressant plus intranasal placebo, in improving depressive symptoms, as assessed by the change from baseline in the Montgomery-Asberg Depression Rating Scale (MADRS) total score from Day 1 (pre-randomization) to the end of the 4-week double-blind induction phase.\nPrimary Efficacy Evaluation: The primary efficacy evaluation is described in Example 1. Key Secondary Efficacy Evaluation (Clinician-completed): The key secondary efficacy evaluation (clinician-completed) is described in Example 1. Key Secondary Efficacy Evaluation (Patient-reported Outcome): The key secondary efficacy evaluation (patient-reported outcome) is described in Example 1. Primary Endpoint: The primary efficacy endpoint is described in Example 1. Primary Endpoint Results: The primary endpoint results are the same as described in Example 1. See, Table 34 and FIG. 19.\nAs specified in the SAP, the weighted combination test was the primary analysis for the primary efficacy endpoint since an interim analysis for sample size re-estimation was conducted. A post-hoc analysis using an unweighted MMRM analysis (essentially disregarding the interim analysis) was performed and the one-sided p-value was 0.018 using this approach. The post-hoc one-sided p-value was 0.017 using the unweighted ANCOVA analysis.\nResponse (≥50% improvement from baseline in the MADRS total score) and Remission (MADRS total score is ≤12) rates are presented in Table 35.\nFor the clinician-rated assessments, MADRS was administered at baseline and days 8, 15, 22 and 28. MADRS scores were obtained remotely by telephone by independent raters blinded to subject's treatment response. Similarly, the Clinical Global Impressions-Severity (CGI-S) scale was administered at baseline; days 4, 8, 11, 15, 18, 22, 25; and at the 4-week double-blind end point.\nFor the MADRS, PHQ-9, and SDS total scores, the test for treatment effect was based on mixed model for repeated measures (MMRM) on observed case data with change from baseline as the response variable and the fixed effect model terms for treatment (ESK+AD, AD+PBO), day, class of oral AD (SNRI or SSRI), and treatment-by-day, and baseline value as a covariate. […]\nEfficacy was determined by measuring MADRS total scores, SDS scores, PHQ-9 scores and CGI-S scores. […]"}, "[2]": {"system": "elderly subjects with TRD", "conditions": "human, in vivo, other: intranasal", "text": "The Modified Observer's Assessment of Alertness/Sedation (MOAA/S) was used to measure treatment-emergent sedation with correlation to levels of sedation defined by the American Society of Anesthesiologists (ASA) continuum. The MOAA/S scores range from 0 (No response to painful stimulus; corresponds to ASA continuum for general anesthesia) to 5 (Readily responds to name spoken in normal tone [awake]; corresponds to ASA continuum for minimal sedation). The proportion of subjects with sedation was <4% for the esketamine group for each dosing day."}, "[3]": {"system": "subjects with MDD at imminent risk for suicide", "test": "SIBAT Clinical Global Judgment of Suicide Risk, Study […]2001", "assay_type": "in vivo, human", "conditions": "84 mg", "text": "• a. Changes from baseline to Day 2 and Day 25 for the MADRS total score • b. Changes from baseline to Day 1 4-hours postdose, Day 2 and Day 25 for the MADRS Suicide Item • c. Changes from baseline to Day 1 4-hours postdose, Day 2, and Day 25 for the clinical global judgment of suicide risk from the Suicide Ideation and Behavior Assessment Tool (SIBAT) • d. Sustained response (Onset of Clinical Response) defined as at least 50% reduction from baseline in MADRS total score with onset on Day 1 that is maintained through the end of the double-blind phase (Day 25) • e. Changes from baseline to Day 1 4-hours postdose, Day 2, and Day 25 for the Beck Scale for Suicidal Ideation (BSS) • f. Changes from baseline to Day 1 4-hours postdose and Day 25 for the Beck Hopelessness Scale\nThe clinical global judgment of suicide risk (Module 8) summarizes clinician overall judgment of suicide risk as derived from information gathered from the full SIBAT tool. It operates like numerous other CGI-severity scales that have been used in other psychiatric studies. Change in the clinical global judgment of suicide risk is designed to directly identify clinical meaningful changes in suicidal ideation and to permit classification of suicide risk.\nThe analysis of the change in SIBAT score was based on an ANCOVA model on ranks of change in SIBAT with treatment, antidepressant therapy, and analysis center as factors, and baseline value (unranked) as a covariate. There was a significant difference (two-sided […]) between the two treatment groups when comparing the mean rank of change from baseline at Day 1: 4-hours postdose in favor of esketamine 84 mg See, Table 58. See, FIG. 39. […] This difference was not evident at the Day 25 DB endpoint. See, FIG. 40, which is based on LOCF data and analyzed using Cochran-Mantel-Haenszel test controlling for analysis center and antidepressant therapy."}, "[4]": {"system": "elderly subjects with TRD", "conditions": "human, in vivo, other: intranasal", "remark": "listed apart in the source", "procedure": "The Clinician Administered Dissociative States Scale (CADSS) was measured prior to the start of each dose, at 40 minutes, and 1.5 hours postdose."}}}
{"smiles": "CN[C@]1(c2ccccc2Cl)CCCCC1=O", "note": "[esketamine, (S)-2-(2-chlorophenyl)-2-(methylamino)cyclohexanone]", "values": [{"measurement": "MADRS total score: difference in LS mean change (SE), MMRM", "setting": "[1]; Day 28, subjects aged 65-74", "value": "−4.9 (2.04)"}, {"measurement": "MADRS total score: difference in LS mean change (SE), MMRM", "setting": "[1]; Day 28, subjects aged 75 and above", "value": "−0.4 (5.02)"}, {"measurement": "MADRS total score: LS mean (SE) treatment difference", "setting": "[1]; Stage 1 (enrolled before interim analysis)", "value": "−1.6 (2.62)"}, {"measurement": "MADRS total score: LS mean (SE) treatment difference", "setting": "[1]; Stage 2 (enrolled after interim analysis)", "value": "−5.6 (2.63)"}, {"measurement": "Proportion of subjects with sedation (post dose MOAA/S score ≤3)", "setting": "[2]", "value": "< 4", "unit": "%"}, {"measurement": "SIBAT Clinical Global Judgment of Suicide Risk, change from baseline, median (range)", "setting": "[3]; Day 1 (DB): 4 H, LOCF, N 33", "value": "0.0 (−6; 1)"}, {"measurement": "SIBAT Clinical Global Judgment of Suicide Risk, median (range)", "setting": "[3]; Day 1 (DB): 4 H, LOCF, N 33", "value": "5.0 (0; 6)"}, {"measurement": "SIBAT Clinical Global Judgment of Suicide Risk, change from baseline, median (range)", "setting": "[3]; Day 2(DB) LOCF, N 35", "value": "−1.0 (−6; 1)"}, {"measurement": "SIBAT Clinical Global Judgment of Suicide Risk, median (range)", "setting": "[3]; Day 2(DB) LOCF, N 35", "value": "5.0 (0; 6)"}, {"measurement": "Subjects with a SIBAT score of 5 or 6", "setting": "[3]; […]2001, Day 1: 4-hour postdose", "value": 63.6, "unit": "%"}, {"measurement": "CADSS dissociative and perceptual change symptoms resolved by (postdose)", "setting": "[4]", "value": "≤ 1.5", "unit": "h"}]}
